Experiments:
[1] = Inhibitory activity against thrombin
[2] = biological target: Cyclin-dependent kinase 2 (Homo sapiens, UniProt P24941); assay: Inhibition of Cyclin-dependent kinase 2

Ki [1] | IC50 [2] | Structure (SMILES)
2 nM |  | N=C(N)NCCC[C@H](NC(=O)[C@@H]1CCN2CC[C@@](N)(Cc3ccccc3)C(=O)N12)C(=O)c1nccs1
1 nM |  | C[C@@H]1CCN(C(=O)[C@H](CCCNC(=N)N)NS(=O)(=O)c2cccc3c2NC[C@H](C)C3)[C@@H](C(=O)O)C1 [ARGATROBAN]
7 nM |  | N=C(N)c1ccc(C[C@@H](NC(=O)CNS(=O)(=O)c2ccc3ccccc3c2)C(=O)N2CCCCC2)cc1
23 nM |  | Cc1cc(NS(=O)(=O)c2ccccc2)cc(OCCNc2ccncc2)c1
 | 1000 nM | O=C1NC2C=CC=CC2/C1=C/Nc1ccc(S(=O)(=O)Nc2nccs2)cc1 (stereo not given)

— ChEMBL document CHEMBL1144417, “Conformation mining: an algorithm for finding biologically relevant conformations” (J Med Chem, 2005)
